Values joined by “and” are separate entries in the source; they are usually repeats but may differ in a detail not shown here. Equal values may be shown once. Read-outs that look alike come from different tables or passages of the source.
Key:
[1] = Lyophilization and reconstitution of PEGylated nanoparticles: appearance and particle size (Zetasizer); assay type: physicochemical; conditions: PLGA7K-PVA-PEG2K-30 and PLGA7K-PVA-PEG5K-30 PEGylated nanoparticle formulations, lyoprotectant/nanoparticle weight ratio 1:1
Source text: Nanoparticles comprising therapeutic agents were lyophilized using three different techniques. The first technique was a simple freeze drying technique where the liquid formulations were frozen with liquid nitrogen followed by drying under vacuum overnight at room temperature. During this simple lyophilization technique a Labconco® freeze dryer (available from Labconco Corp. of Kansas City, Mo.) was used. […] Instead of conventional multi-step ramping and holding, one step slow ramping was used in this approach.
Both the rapid cycle and conventional cycle lyophilization reactions were performed using a VirTis advantage freeze dryer.
A lyoprotectant screen was performed as follows. The critical point for design of a lyophilization cycle was to keep the temperature below the glass transition temperature (Tg′) of the lyoprotectant during the primary drying stage.
In this example, a new strategy of using cyclodextrins and their derivatives as a cryoprotectant was tested.
PEGylated nanoparticle formulations were analyzed for nanoparticle size prior to lyophilization, and lyophilized preparations that were completely resuspended by hand shaking were analyzed for nanoparticle size with a Zetasizer particle sizer. […] Prior to lyophilization, lyoprotectants and non-cyclic carbohydrates were added to PEGylated nanoparticle formulations at different weight ratios.

[2] = system: B 16.F10 cells; assay: CellTiter-Glo cytotoxicity of nanoparticles formed from CDP-linker-docetaxel compounds (Example 131); assay type: cell-based, mouse; conditions: CellTiter-Glo, 24, 48 and 72 hours of incubation
Protocol: To measure the cytotoxic effect of CDP-linker-docetaxel compounds, the CellTiter-Glo Luminescent Cell Viability Assay (CTG) was used. […] B 16.F10 cells, grown to 85-90% confluency in 150 cm2 flasks (passage<30), were resuspended in media (MEM-alpha, 10% HI-FBS, 1× antibiotic-antimycotic solution) and added to 96-well opaque-clear bottom plates at a concentration of 1500 cells/well in 200 μL/well. The cells were incubated at 37° C. with 5% CO2 for 24 hours. The following day, serial dilutions of 2× concentrated particles and 2× concentrated free drug were made in 12-well reservoirs with media to specified concentrations. The media in the plates was replaced with 100 μL of fresh media and 100 μL of the corresponding serially diluted drug. Three sets of plates were prepared with duplicate treatments. Following 24, 48 and 72 hours of incubation at 37° C. with 5% CO2, the media in the plates was replaced with 100 μL of fresh media and 100 μL of CTG solution, and then incubated for 5 minutes on a plate shaker at room temperature set to 450 rpm and allowed to rest for 15 minutes. Viable cells were measured by luminescence using a microtiter plate reader. The data was plotted as % viability vs. concentration and standardized to untreated cells.

[3] = Particle properties (Zavg, PDI, Dv50, Dv90) by dynamic light scattering; assay type: physicochemical; conditions: polymer conjugate
Source text: Particle solution properties were characterized by dynamic light scattering (DLS) spectrometer.

[4] = Stability of 1H NMR sample stored at ambient temperature; assay type: physicochemical; conditions: 4 days
Protocol: Docetaxel-2′-aminoethyldithioethyl carbonate.DCA [2.77 g] was dissolved in DCM (100 mL) to produce a clear solution. It was washed with saturated NaHCO3 (2×40 mL). The organic layer was separated, dried over sodium sulfate and filtered. The filtrate was concentrated to ˜10 mL, to which heptanes (100 mL) was slowly added resulting in a suspension. It was stirred for 0.5 h and filtered (30 mL heptanes wash). The filter cake was vacuum-dried at ambient temperature for 16 h to afford the free base of CPX1231 [2.17 g, yield: 88%].

[5] = mouse, in vivo
Protocol: The stock solution was diluted further with PBS to 0.6, 1.5, 3, 4.5 and 6 mg/mL (for a corresponding dose of 6, 15, 30, 45 and 60 mg/kg) so that all the groups received the same amount of ethanol, polysorbate 80, water and PBS. […] 5) PEGylated O-acetyl-5050-PLGA nanoparticle vehicle at the highest concentration of 6 mg/mL.
The treatments were administered IV into the tail vein at a dose volume of 10 mL/kg, beginning on post-implantation Day 5, when the mean tumor volume was 55 mm^3. The treatments were administered 4 times, on Days 5, 8, 12 and 15 (biweekly×4 injections). On Day 17 post-tumor implantation, mice were euthanized by CO2 inhalation according to the procedure guideline. Blood was collected by cardiac puncture and put into ethylenediaminetetraacetic acid (EDTA) or serum separation blood collection tubes. Whole blood was analyzed on the day of collection for CBC analyses. After the blood clotted and was centrifuged, serum was frozen immediately on dry ice for serum chemistry analyses.
Tolerability was determined by changes in body weight, expressed as a percent of the initial body weight on post-implantation Day 5. […] Other indices of toxicity, complete blood count (CBC) and serum chemistry were determined from blood collected from animals that were euthanized on Day 17 by CO2 inhalation, according to the procedure guideline.

[6] = Body weight changes in A2780 tumor-bearing mice (Example 78); assay type: in vivo, female CD-1 nude mice; conditions: Day 36
Protocol: The stock solution was diluted further with PBS to 1.5 mg/mL (for a dose of 15 mg/kg at 10 mL/kg and 30 mg/kg at 20 mL/kg). This formulation was made within 30 minutes of administration to mice.
The treatments were administered 2 times, on Day 8 and Day 15 (weekly×2 injections) for n=8 mice per group. […] On Day 50, the study was ended for all remaining mice. When removed from the study, mice were euthanized by CO2 inhalation.

[7] = system: B16.F10 cells; assay: Efficacy of PEGylated docetaxel-5050 PLGA-O-acetyl nanoparticles (2k/5k mPEG-PLGA), B16.F10 murine melanoma (Example 79); assay type: in vivo, male C57BL/6 mice; conditions: q7dx3, 30 mg/kg
Protocol: Refer to table for detailed description of formulations.
Tumor volume was calculated with the following equation: (width×width×length)/2 mm^3.

[8] = Tolerability in normal non-tumor-bearing mice: body weight, CBC, serum chemistry, ataxia, sciatic nerve histopathology (Example 83); assay type: in vivo, male C57BL/6 mice
Protocol: Treatments were administered intravenously on a q7d×2 schedule, i.e., two treatments seven days apart (the first treatment was on Day one). The study ended on Day 14, six days after the 2nd treatment. Blood was collected for complete blood count (CBC) and serum chemistry. Leg muscles were collected so that nerve degeneration could be assessed from the sciatic nerve.

[9] = Body weight and ataxia in MDA-MB-435 tumor-bearing mice (Example 82); assay type: in vivo, female CD-1 nude mice; conditions: for body weight loss: weekly×two injections
Protocol: The treatments were administered IV into the tail vein at the dose volumes stated above, beginning on post-implantation Day 21, when the mean tumor volume was 150 mm^3 or, for one group, on Day 37, when the mean tumor volume for that group was 433 mm^3.

[10] = Body weight and ataxia in SK-OV-3 tumor-bearing mice (Example 81); assay type: in vivo, female CD-1 nude mice; conditions: 60 mg/kg, weekly×two injections
[11] = Tolerability in mouse melanoma model B16.F10 (Example 87); assay type: in vivo, male C57BL/6 mice; conditions: 1/wk×3
Protocol: (§1) The treatments were administered IV into the tail vein at a dose volume of 10 ml/kg, beginning on post-implantation day 5, when the mean tumor volume was ca. 60 mm^3. Animals were monitored for any morbidity and adverse effects three times a week. In addition, body weight and tumor volume were also measured three times a week.

[12] = system: B16.F10 cells; assay: Efficacy of docetaxel-2′-alanine-glycolate and -2′-glycine-5050 PLGA-O-acetyl nanoparticles in mouse melanoma model B16.F10 (Example 87); assay type: in vivo, male C57BL/6 mice; conditions: 1/wk×3
Protocol: B16.F10 cells were grown in culture to 85-90% confluency in MEM-alpha medium supplemented with fetal bovine serum (FBS) and 1% penicillin/streptomycin. Cells were removed from the flask using 0.05% trypsin (passage=4), re-suspended in PBS (density=10×10^6 cells/mL) and were implanted subcutaneously (1×10^6 cells in 100 μL PBS/mouse) into the right flank of male C57BL/6 mice on day 1.
as §1
Tumor volume was calculated with (width×width×length)/2 mm^3 formula. Efficacy was determined by tumor growth inhibition (TGI), tumor growth delay (TGD) and survival. Tumor growth inhibition (TGI) is represented as % and calculated as (1−(treated tumor volume/control tumor volume))×100 when the control group mean tumor volume reached ≧3000 mm^3. Tumor growth delay (TGD) is calculated by subtracting the day when the vehicle treated group reached the maximum tumor size 3000 mm^3 from the day when the treatment group tumor size reached 3000 mm^3. The criterion at which a mouse was removed from the study was tumor volume≧3000 mm^3

[13] = Tolerability in mouse melanoma model B16.F10 (Example 84); assay type: in vivo, male C57BL/6 mice; conditions: 30 mg/kg, 1/wk×3
Protocol: (§2) The treatments were administered IV into the tail vein at a dose volume of 10 and 15 ml/kg for a corresponding dose of 30 mg/kg and 45 mg/kg respectively, beginning on post-implantation day 5, when the mean tumor volume was ca. 60 mm^3 Body weight and tumor volume were measured three times a week. In addition, animals were also monitored for any morbidity and adverse effects three times a week.

[14] = system: ADR-RES cells; assay: Efficacy in docetaxel resistant model ADR-RES (Example 85); assay type: in vivo, female nu/nu mice
Protocol: ADR-RES cells were grown in culture to 85-90% confluency in RPMI medium supplemented with 10% fetal bovine serum (FBS), 1% glutamine and 1% penicillin/streptomycin.
(§3) The treatments were administered IV into the tail vein at a dose volume of 10 and 20 mL/kg for 30 and 60 mg/kg respectively, beginning on post-implantation day 47, when the mean tumor volume was ca. 150 mm^3 Body weight and tumor volume were measured for three times a week during the dosing period and twice a week thereafter. In addition, animals were also monitored for any morbidity and adverse effects for three times a week during the dosing period and twice a week thereafter.
Tumor volume was calculated with (width×width×length)/2 mm^3 formula. Efficacy was determined by tumor growth inhibition (TGI), tumor growth delay (TGD) and survival. Tumor growth inhibition (TGI) is represented as % and calculated as (1−(treated tumor volume/control tumor volume))×100 when the control group mean tumor volume reached ≧1000 mm^3 Tumor growth delay (TGD) is calculated by subtracting the day when the vehicle treated group reached the maximum tumor size 1000 mm^3 from the day when the treatment group tumor size reached 1000 mm^3.

[15] = system: H1299 cells; assay: Efficacy in non-small cell lung carcinoma model H1299 (Example 86); assay type: in vivo, male nu/nu mice; conditions: 30 mg/kg
Protocol: H1299 cells were grown in culture to 85-90% confluency in RPMI medium supplemented with 10% fetal bovine serum (FBS), 1% glutamine and 1% penicillin/streptomycin. Cells were removed from the culture flask using 0.05% trypsin (passage=4), re-suspended in RPMI medium (density=50×10^6 cells/mL) and were implanted subcutaneously (5×10^6 cells in 100 μL RPMI medium/mouse) into the mammary fat pad area of male nu/nu mice on day 1.
(§4) The treatments were administered IV into the tail vein at a dose volume of 10 and 20 mL/kg for 30 and 60 mg/kg respectively, beginning on post-implantation day 30 when the mean tumor volume was ca. 170 mm^3 (small tumor group), and on day 37 when the mean tumor volume was ca. 440 mm^3 (large tumor group). Body weight and tumor volume were measured for three times a week during the dosing period and twice a week thereafter. In addition, animals were also monitored for any morbidity and adverse effects for three times a week during the dosing period and twice a week thereafter.
(§5) Tumor volume was calculated with (width×width×length)/2 mm^3 formula. Efficacy was determined by tumor growth inhibition (TGI), tumor growth delay (TGD) and survival. Tumor growth inhibition (TGI) is represented as % and calculated as (1−(treated tumor volume/control tumor volume))×100 when the control group mean tumor volume reached ≧1000 mm^3. Tumor growth delay (TGD) is calculated by subtracting the day when the vehicle treated group reached the maximum tumor size 1000 mm^3 from the day when the treatment group tumor size reached 1000 mm^3.

[16] = system: B16.F10 cells; assay: Efficacy of docetaxel-2′-5050 PLGA-O-acetyl nanoparticles in mouse melanoma model B16.F10 (Example 84); assay type: in vivo, male C57BL/6 mice; conditions: 30 mg/kg, 1/wk×3
Protocol: B16.F10 cells were grown in culture to 85-90% confluency in MEM-alpha medium supplemented with 10% fetal bovine serum (FBS) and 1% penicillin/streptomycin. Cells were removed from the culture flask using 0.05% trypsin (passage=4), re-suspended in PBS (density=10×10^6 cells/mL) and were implanted subcutaneously (1×10^6 cells in 100 μL MEM-alpha medium/mouse) into the right flank of male C57BL/6 mice on day 1.
as §2
Tumor volume was calculated with (width×width×length)/2 mm^3 formula. Efficacy was determined by tumor growth inhibition (TGI), tumor growth delay (TGD) and survival. Tumor growth inhibition (TGI) is represented as % and calculated as (1−(treated tumor volume/control tumor volume))×100 when the control group mean tumor volume reached ≧3000 mm^3. Tumor growth delay (TGD) is calculated by subtracting the day when the vehicle treated group reached the maximum tumor size 3000 mm^3 from the day when the treatment group tumor size reached 3000 mm^3. […]

[17] = Tolerability in H1299 model (Example 86); assay type: in vivo, male nu/nu mice
Protocol: as §4, §5

[18] = Tolerability in ADR-RES model (Example 85); assay type: in vivo, female nu/nu mice
Protocol: as §3

OC[C@H]1O[C@@H]2O[C@H]3[C@H](O)[C@@H](O)[C@@H](O[C@H]4[C@H](O)[C@@H](O)[C@@H](O[C@H]5[C@H](O)[C@@H](O)[C@@H](O[C@H]6[C@H](O)[C@@H](O)[C@@H](O[C@H]7[C@H](O)[C@@H](O)[C@@H](O[C@H]1[C@H](O)[C@H]2O)O[C@@H]7CO)O[C@@H]6CO)O[C@@H]5CO)O[C@@H]4CO)O[C@@H]3CO [α-CD, α cyclodextrin]
maintenance of particle size after simple lyophilization [1]: also worked at the same weight ratio

OC[C@H]1O[C@H](O[C@H]2O[C@H](CO)[C@@H](O)[C@H](O)[C@H]2O)[C@H](O)[C@@H](O)[C@@H]1O [Trehalose, trehalose]
maintenance of particle size after simple lyophilization [1]: None of mannitol, sucrose and trehalose worked at the same ratio

CDP-Alanine Glycolate-Docetaxel
IC50 [2]: 0.4 to 2 nM

OC[C@H]1O[C@@H]2O[C@H]3[C@H](O)[C@@H](O)[C@@H](O[C@H]4[C@H](O)[C@@H](O)[C@@H](O[C@H]5[C@H](O)[C@@H](O)[C@@H](O[C@H]6[C@H](O)[C@@H](O)[C@@H](O[C@H]7[C@H](O)[C@@H](O)[C@@H](O[C@H]8[C@H](O)[C@@H](O)[C@@H](O[C@H]9[C@H](O)[C@@H](O)[C@@H](O[C@H]1[C@H](O)[C@H]2O)O[C@@H]9CO)O[C@@H]8CO)O[C@@H]7CO)O[C@@H]6CO)O[C@@H]5CO)O[C@@H]4CO)O[C@@H]3CO [γ-CD, γ cyclodextrin]
maintenance of particle size after simple lyophilization [1]: also worked at the same weight ratio

OC[C@H]1O[C@@](CO)(O[C@H]2O[C@H](CO)[C@@H](O)[C@H](O)[C@H]2O)[C@@H](O)[C@@H]1O [Sucrose, sucrose]
maintenance of particle size after simple lyophilization [1]: None of mannitol, sucrose and trehalose worked at the same ratio

CDP-Gly-SN-38
particle size [3]: 27.9 nm

CC(=O)O[C@@]12CO[C@@H]1C[C@H](O)[C@@]1(C)C(=O)[C@H](O)C3=C(C)[C@@H](OC(=O)[C@H](OC(=O)OCCSSCCN)[C@@H](NC(=O)OC(C)(C)C)c4ccccc4)C[C@@](O)([C@@H](OC(=O)c4ccccc4)[C@H]21)C3(C)C [docetaxel-2′-aminoethyldithioethyl carbonate]
degradation of 1H NMR sample [4]: no indication of degradation

OC[C@@H](O)[C@@H](O)[C@H](O)[C@H](O)CO [Mannitol, mannitol]
maintenance of particle size after simple lyophilization [1]: None of mannitol, sucrose and trehalose worked at the same ratio

CC(=O)O[C@@]12CO[C@@H]1C[C@H](O)[C@@]1(C)C(=O)[C@H](O)C3=C(C)[C@@H](OC(=O)[C@H](O)[C@@H](NC(=O)OC(C)(C)C)c4ccccc4)C[C@@](O)([C@@H](OC(=O)c4ccccc4)[C@H]21)C3(C)C [docetaxel]
serum chemistry parameters [5]: did not affect any serum chemistry parameter at doses up to 30 mg/kg
% of the initial body weight ([6]; 15 mg/kg): 113±11%
% of the initial body weight ([6]; 30 mg/kg): 105±9%
day average tumor volume reached the end point of 3000 mm^3 [7]: 37 days
body weight above the initial on Day 14 ([8]; 30 mg/kg q7d×2): 3%
body weight above the initial on Day 14 ([8]; 45 mg/kg q7d×2): 2%
weight gained at the second treatment ([8]; 30 and 45 mg/kg q7d×2): up to 7%
body weight loss ([9]; 15 mg/kg): 10%
body weight loss ([9]; 30 mg/kg): 14%
Ataxia [10]: observed in all the mice four days after the second treatment

CDP-hexanoate-docetaxel [CDP-hexanoate-docetaxel nanoparticles]
IC50 [2]: 325 to 440 nM

CDP-2′-glycine-docetaxel
IC50 [2]: 1.2 to 3.7 nM

CDP-dithiolethyloxy-carbonate-docetaxel
IC50 [2]: 23 nM

CC(=O)O[C@@]12CO[C@@H]1C[C@H](O)[C@@]1(C)C(=O)[C@H](O)C3=C(C)[C@@H](OC(=O)[C@H](O)[C@@H](NC(=O)OC(C)(C)C)c4ccccc4)C[C@@](O)([C@@H](OC(=O)c4ccccc4)[C@H]21)C3(C)C [Free docetaxel, docetaxel]
Maximum body weight loss (%) ([11]; 15 mg/kg): 2%
Maximum body weight loss (%) ([11]; 30 mg/kg): 12% and 14%
serum chemistry parameters ([8]; q7d×2): did not affect any serum chemistry parameter at doses up to 60 mg/kg
survival on day 29 ([12]; 15 mg/kg): 50%
survival on day 43 ([12]; 15 mg/kg): 0%
survival on day 36 ([12]; 30 mg/kg): 50%
survival on day 40 ([12]; 30 mg/kg): 50%
survival on day 43 ([12]; 30 mg/kg): 0%
survival on day 45 ([12]; 30 mg/kg): 0%
Maximum body weight loss (%) [13]: 12%
Ataxia ([9]; 60 mg/kg): Ataxia was observed four days after the second treatment
survival on day 102 ([14]; 30 mg/kg, 1/biwk×3): 50%
survival on day 106 ([14]; 30 mg/kg, 1/wk×2): 50%
day mean tumor volume endpoint (≧1000 mm^3) reached ([14]; 60 mg/kg, 1/wk×2): 106 days
survival on day 106 ([14]; 60 mg/kg, 1/wk×2): 50%
survival on day 61 ([15]; large tumor group): 50%
survival on day 80 ([15]; large tumor group): 0%
survival on day 56 ([15]; small tumor group): 50%
survival on day 68 ([15]; small tumor group): 0%
survival on day 40 [16]: 50%
survival on day 45 [16]: 0%
Maximum body weight loss (%) ([17]; 30 mg/kg, 1/wk×2, large tumor group): 19%
Maximum body weight loss (%) ([17]; 30 mg/kg, 1/wk×2, small tumor group): 18%
body weight loss / hind limb paralysis ([17]; 30 mg/kg, large tumor group): did not cause any significant body weight loss or hind limb paralysis
body weight loss / hind limb paralysis ([17]; 30 mg/kg, small tumor group): did not cause any significant body weight loss or hind limb paralysis
body weight loss / hind limb paralysis ([17]; 60 mg/kg, large tumor group): significant body weight loss and severe hind limb paralysis following the second injection
body weight loss / hind limb paralysis ([17]; 60 mg/kg, small tumor group): significant body weight loss and severe hind limb paralysis following the second injection
Maximum body weight loss (%) ([18]; 30 mg/kg, 1/biwk×3): 9%
body weight loss / hind limb paralysis ([18]; 30 mg/kg, 1/biwk×3): did not cause any significant body weight loss (<10%) or hind limb paralysis
Maximum body weight loss (%) ([18]; 30 mg/kg, 1/wk×2): 6%
body weight loss / hind limb paralysis ([18]; 30 mg/kg, 1/wk×2): did not cause any significant body weight loss (<10%) or hind limb paralysis
Maximum body weight loss (%) ([18]; 60 mg/kg, 1/biwk×3): 21%
body weight loss / hind limb paralysis ([18]; 60 mg/kg, 1/biwk×3): severe hind limb paralysis following the third injection
Maximum body weight loss (%) ([18]; 60 mg/kg, 1/wk×2): 23%
body weight loss / hind limb paralysis ([18]; 60 mg/kg, 1/wk×2): hind limb paralysis after the 2nd injection followed by recovery

— patent US20140328918A1, “METHODS OF TREATING A SUBJECT AND RELATED PARTICLES, POLYMERS AND COMPOSITIONS” (CERULEAN PHARMA INC., priority 2010, published 2014)
